Earlier results as cited in patent US20090306209A1, “ENTERIC-COATED FORMULATIONS OF POLYETHYLENE GLYCOL AND ONE OR MORE SOLUBLE AMINO ACIDS FOR ORAL INGESTION AND ENHANCED UPTAKE OF SAME” (priority 2008, published 2009).
Where two headings read alike, the source gives them in different places.

Conditions: for solubility in water (in words): temperature not stated

| Structure (SMILES) | solubility in water (in words) | also measured |
| --- | --- | --- |
| Cl.NC(=O)CC[C@H](N)C(=O)O [L-glutamine-HCl] | very soluble in water | – |
| CC(C)C[C@H](N)C(=O)O.Cl [L-leucine.HCl] | very soluble in water | – |
| NC(=O)CC[C@H](N)C(=O)O [L-glutamine] | – | solubility in water (water at 30° C.): 5 grams/100 ml |
| CC(C)C[C@H](N)C(=O)O [L-leucine] | – | solubility in water (water at 25° C.): 2.4 g/100 ml |
